We go through 4 compounds from PMC11428031, “Discovery of selective LATS inhibitors via scaffold hopping: enhancing drug-likeness and kinase selectivity for potential applications in regenerative medicine” (RSC Medicinal Chemistry, 2024).

Molecules are shown by their SMILES. ≈ marks a conversion by molar mass, not a printed value.

Data set [1] is described as follows: In vivo pharmacokinetics in male mice. Conditions: for Ft: IP; for half-life: T1/2, male mice; for clearance: CL.
Description: All animal procedures were performed in accordance with the Guidelines for Care and Use of Laboratory Animals of Korea Research Institute of Chemical Technology and approved by the Animal Ethics Committee of Korea Research Institute of Chemical Technology.
For a further data set, the target named is T1, YSK4 (Homo sapiens, UniProt Q56UN5).
T1 sequence (Q56UN5 1-1328): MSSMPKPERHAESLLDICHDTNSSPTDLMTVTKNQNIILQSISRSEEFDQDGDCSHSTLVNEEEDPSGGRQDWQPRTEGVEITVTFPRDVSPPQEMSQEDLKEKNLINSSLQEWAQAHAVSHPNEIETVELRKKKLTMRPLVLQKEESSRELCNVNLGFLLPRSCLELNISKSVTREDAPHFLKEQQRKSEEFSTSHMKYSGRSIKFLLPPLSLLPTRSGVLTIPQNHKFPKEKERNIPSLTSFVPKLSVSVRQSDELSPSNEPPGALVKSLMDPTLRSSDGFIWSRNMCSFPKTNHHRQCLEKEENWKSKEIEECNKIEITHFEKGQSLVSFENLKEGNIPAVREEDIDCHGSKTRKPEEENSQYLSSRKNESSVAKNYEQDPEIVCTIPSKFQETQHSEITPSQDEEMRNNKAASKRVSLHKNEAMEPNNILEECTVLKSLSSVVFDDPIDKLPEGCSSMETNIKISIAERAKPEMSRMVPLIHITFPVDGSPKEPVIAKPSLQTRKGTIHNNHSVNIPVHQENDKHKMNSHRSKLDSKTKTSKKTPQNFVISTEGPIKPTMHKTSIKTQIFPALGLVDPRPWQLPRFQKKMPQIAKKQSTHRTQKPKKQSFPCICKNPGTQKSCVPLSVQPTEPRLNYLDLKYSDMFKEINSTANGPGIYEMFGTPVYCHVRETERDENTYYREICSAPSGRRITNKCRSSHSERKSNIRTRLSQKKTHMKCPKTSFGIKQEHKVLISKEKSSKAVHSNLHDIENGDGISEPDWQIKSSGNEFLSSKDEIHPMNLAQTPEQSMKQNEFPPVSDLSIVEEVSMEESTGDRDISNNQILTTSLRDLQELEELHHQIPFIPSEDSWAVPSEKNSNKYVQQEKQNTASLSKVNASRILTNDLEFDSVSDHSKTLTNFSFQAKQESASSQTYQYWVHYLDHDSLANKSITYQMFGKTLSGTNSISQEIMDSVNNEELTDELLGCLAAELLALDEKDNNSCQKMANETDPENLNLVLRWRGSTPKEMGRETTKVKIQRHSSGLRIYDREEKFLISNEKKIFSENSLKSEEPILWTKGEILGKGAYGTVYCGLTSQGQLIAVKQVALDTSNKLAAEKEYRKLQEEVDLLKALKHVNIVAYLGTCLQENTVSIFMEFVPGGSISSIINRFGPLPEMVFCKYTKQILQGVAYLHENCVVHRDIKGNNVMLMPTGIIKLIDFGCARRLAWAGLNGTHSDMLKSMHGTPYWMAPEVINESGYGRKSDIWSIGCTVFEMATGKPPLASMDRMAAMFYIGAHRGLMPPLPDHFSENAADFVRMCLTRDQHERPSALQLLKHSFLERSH
Description: KINOMEscan scanMAX binding, YSK4. Conditions: 100 nM compound; lower = stronger interaction.

A short description of data set [2]: in vitro. As to conditions: mouse, liver microsomes. (Microsomes from liver hold many membrane-bound enzymes, among them those of drug oxidation.)
The next data set is described as follows: physchem. As to conditions: D2O (deuterium oxide).
The subject of another data set is 468 kinases. Description: KINOMEscan scanMAX kinase profiling, selectivity over the panel. The format is binding. As to conditions: 100 nM, of 403 non-mutant kinases.
Another data set concerns the target T2, DMPK (Homo sapiens, UniProt Q09013).
T2 sequence (Q09013 1-629): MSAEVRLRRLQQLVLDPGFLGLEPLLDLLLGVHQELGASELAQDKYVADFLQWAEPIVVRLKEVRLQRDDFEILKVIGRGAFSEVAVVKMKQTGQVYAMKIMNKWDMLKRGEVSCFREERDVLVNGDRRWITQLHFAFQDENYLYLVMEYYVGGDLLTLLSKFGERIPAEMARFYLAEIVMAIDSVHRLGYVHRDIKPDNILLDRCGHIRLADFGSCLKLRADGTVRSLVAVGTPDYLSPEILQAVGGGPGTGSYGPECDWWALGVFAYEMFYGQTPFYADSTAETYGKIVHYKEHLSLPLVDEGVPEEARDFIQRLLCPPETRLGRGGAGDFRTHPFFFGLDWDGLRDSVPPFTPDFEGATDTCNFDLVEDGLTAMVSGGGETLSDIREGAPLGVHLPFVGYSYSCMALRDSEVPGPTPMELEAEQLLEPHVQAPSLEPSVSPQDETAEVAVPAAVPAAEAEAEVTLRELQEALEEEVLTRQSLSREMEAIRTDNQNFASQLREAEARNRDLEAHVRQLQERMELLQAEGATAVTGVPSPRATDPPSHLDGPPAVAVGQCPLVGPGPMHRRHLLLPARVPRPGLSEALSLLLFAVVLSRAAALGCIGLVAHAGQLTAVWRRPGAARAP
Description: KINOMEscan scanMAX binding, DMPK. Conditions: 100 nM compound; lower = stronger interaction.

Data set [3] can be described thus: in vitro. As to conditions: human, liver microsomes.
The nature of data set [4]: Liver microsomal phase I stability, human. Conditions: for Stability in human liver microsomes relative to 1, Truli: experimental values of Table 4; for HLM phase I stability (% remaining after 30 min): human liver microsomes 0.5 mg/mL, 1 μM compound, NADPH, 37 °C, mean ± SD, n=3.
Data set [5] can be described thus: Liver microsomal phase I stability, mouse. As to conditions: mouse liver microsomes 0.5 mg/mL, 1 μM compound, NADPH, 37 °C, mean ± SD, n=3.
For another data set, the system named is 321 protein kinases. Details: method as in PMID 35231442. As to conditions: out of 321 tested protein kinases; cited from earlier work.
Setting [6] is: male, mouse, plasma, ip, 10 mg/kg.
[7] abbreviates: male, mouse, plasma, iv, 5 mg/kg.
Setting [8] is: male, mouse, plasma, iv, 5 mg/kg, male mice.
Setting [9] is: male, mouse, plasma, po, 20 mg/kg.

Compound `O=C(/N=c1\sccn1Cc1ccccc1)c1n[nH]c2ncccc12` [Compound 5l, (Z)-N-(3-Benzylthiazol-2(3H)-ylidene)-1H-pyrazolo[3,4-b]pyridine-3-carboxamide] yielded a Ft in data set [1] (male mice, 10 mg/kg) of 74.36%. Further, in data set [1] (male mice, PO, 20 mg/kg), the “Ft (bioavailability, F)” value came to 43.89%. In data set [1] (setting [6]), this compound returned an AUC(0-inf) of 4390 ± 710 ng·h/mL, an AUC(0-t) of 4370 ± 720 ng·h/mL, a Cmax of 7300 ± 1880 ng/mL and an MRT inf of 1.14 ± 0.21 h. In addition, in data set [1] (setting [6]), the MRT last came to 0.97 ± 0.12 h, the Tmax was 0.08 h and the half-life is 5.59 ± 0.88 h. In [1] (setting [7]), this compound yielded an AUC(0-inf) of 2960 ± 150 ng·h/mL, an AUC(0-t) of 2940 ± 180 ng·h/mL, an MRT inf of 1.04 ± 0.71 h and an MRT last of 0.71 ± 0.25 h. In [1] (setting [7]), this compound gave a Vd of 1.8 ± 1.32 L/kg and a half-life of 6.56 ± 3.32 h. The clearance in data set [1] (setting [8]) is 28.2 mL/min/kg. Also, in data set [1] (setting [9]), the AUC(0-inf) worked out at 5160 ± 590 ng·h/mL, the AUC(0-t) is 5150 ± 590 ng·h/mL, the Cmax was 5740 ± 920 ng/mL and the MRT inf turned out to be 1.56 ± 0.1 h. Moreover, in data set [1] (setting [9]), the MRT last is 1.5 ± 0.1 h, the Tmax amounted to 0.25 h and the half-life is 3.46 ± 0.33 h. Besides, on YSK4, the “%Ctrl @ 100 nM, YSK4” value is on record as 7.1 %Ctrl. The same compound had an amount remaining at 0.5 h, 1 μM in the data set “in vitro [2]” of 0.69 ± 0.17%. This compound also had a solubility at 24 h in the data set “physchem” of 290 ± 15 µg/mL (≈ 865 µM). In the data set with 468 kinases (%Ctrl <1), the “Number hits, S(1)” value is 0. Moreover, the “Number hits, S(10)” value in the data set with 468 kinases (%Ctrl <10) is 2. In addition, the “Number hits, S(35)” value in the data set on 468 kinases (%Ctrl <35) was 3. For the same compound, the “%Ctrl @ 100 nM, DMPK” value on DMPK is given as 6.5 %Ctrl. Also, the amount remaining at 0.5 h, 1 μM in the data set “in vitro [3]” is 34.9 ± 1.31%. Moreover, in data set [4], the “Stability in human liver microsomes relative to 1, Truli” value is on record as “more than ten times higher stability” and the “HLM phase I stability (% remaining after 30 min)” value was 35 ± 1.3%.

Regarding `O=C(/N=c1\sccn1Cc1ccccc1)c1c[nH]c2ncccc12` [1 (Truli), (Z)-N-(3-benzylthiazol-2(3H)-ylidene)-1H-pyrrolo[2,3-b]pyridine-3-carboxamide, reference compound], the values for the share remaining at 0.5 h, 1 μM in “in vitro [2]” and in “in vitro [3]” were 0.18 ± 0.03% and 2.68 ± 0.46%, respectively. In “physchem”, this compound showed a solubility at 24 h of 140 ± 26 µg/mL (≈ 419 µM). Also, the “HLM phase I stability (% remaining after 30 min)” value in data set [4] is reported as 2.7 ± 0.5%.

`O=C(/N=c1\sccn1Cc1ccccc1)c1c[nH]c2ncncc12` [Compound 5k, (Z)-N-(3-Benzylthiazol-2(3H)-ylidene)-7H-pyrrolo[2,3-d]pyrimidine-5-carboxamide] registered a Ft in data set [1] (male mice, 10 mg/kg) of 131.71%. Moreover, in data set [1] (setting [6]), the AUC(0-inf) turned out to be 11500 ± 3250 ng·h/mL, the AUC(0-t) was determined as 11400 ± 3280 ng·h/mL, the peak level (Cmax) was 9510 ± 2030 ng/mL and the MRT inf was 1.27 ± 0.15 h. Moreover, in [1] (setting [6]), the mean residence time (MRT last) was found to be 1.14 ± 0.15 h, the time to peak (Tmax) came out at 0.5 h and the half-life is 5.24 ± 2.45 h. In addition, in data set [1] (setting [7]), the AUC(0-inf) was found to be 4340 ± 2160 ng·h/mL, the AUC(0-t) is 4340 ± 2170 ng·h/mL, the MRT inf was found to be 1.49 ± 1.72 h and the MRT last came out at 1.43 ± 1.65 h. In data set [1] (setting [7]), this compound gave a Vd of 3 ± 4.42 L/kg and a half-life of 2.86 ± 1.88 h. The same compound gave a clearance in data set [1] (setting [8]) of 23.5 mL/min/kg. In data set [1] (setting [9]), this compound yielded an AUC(0-inf) of 25800 ± 7970 ng·h/mL, an AUC(0-t) of 25700 ± 8010 ng·h/mL, a Cmax of 13300 ± 2820 ng/mL and an MRT inf of 1.81 ± 0.94 h. Besides, in data set [1] (setting [9]), the MRT last was 1.74 ± 0.99 h, the Tmax is 0.42 ± 0.14 h, the bioavailability amounted to 148% and the half-life is 4.25 ± 3.57 h. Moreover, in the data set “in vitro [2]”, the fraction remaining at 0.5 h, 1 μM came out at 13.8 ± 0.55%. Besides, the concentration in solution in the data set “physchem” (solubility at 24 h) came to 680 ± 89 µg/mL (≈ 2030 µM). Besides, in “in vitro [3]”, the share remaining at 0.5 h, 1 μM is 43.1 ± 1.1%. Moreover, in [4], the “Stability in human liver microsomes relative to 1, Truli” value is “more than ten times higher stability” and the “HLM phase I stability (% remaining after 30 min)” value is 43 ± 1.1%. Besides, the “MLM phase I stability (% remaining after 30 min)” value in [5] was determined as 14 ± 0.6%.

Regarding `CC/C(=N\NC(=O)NCc1cccc(O)c1)c1ccc(O)c(C)c1O` [3 (GA-017)], in the data set on 321 protein kinases, the “Number of protein kinases against which high potency was exhibited” value is 16.

Broadly, the AUC(0-inf) is the area under the concentration-time curve extrapolated to infinity. By AUC(0-t) is commonly meant exposure summed from dosing to a finite time, without extrapolation to infinity. One may read the Cmax as the highest concentration seen after dosing. By MRT inf is commonly meant the average time that molecules of a dose stay in the body. The MRT last is the average time that molecules of a dose stay in the body. The Tmax is the time from dosing to the highest level. The half-life is the time needed for the level to fall by half in the phase considered. A word on the Vd: it is the apparent volume that relates the amount in the body to the concentration in plasma or blood. A word on the clearance: it is the volume of plasma or blood freed of the substance per unit of time. For orientation: fraction remaining means the share of the starting amount still present when the sample was taken. What is called solubility is the dissolved amount per volume that the medium holds.
